Results from patent US20080058269A1, “Insulin Releasing Peptides” (priority 2003, published 2008).
Like-named read-outs stand apart in the source and are kept apart here.

Experiments:
[1] = tested on: BRIN-BD11 cells; test: Acute insulin release from BRIN-BD11 cells cultured overnight with forskolin, PMA or pertussis toxin; assay type: cell-based, rat; conditions: acute test at 5.6 mM glucose; for Stimulatory effect on insulin secretion in cells cultured overnight with PMA: 10 nM PMA overnight (protein kinase C pathway); for Stimulatory effect on insulin secretion in cells cultured overnight with pertussis toxin: 0.1 μg/ml pertussis toxin overnight (G-protein pathway); for Stimulatory effect on insulin secretion in cells cultured overnight with forskolin: 25 μM forskolin overnight (desensitised cyclic AMP-protein kinase A pathway)
Procedure: FIG. 8 illustrates the dependence of the stimulatory effects of 1653.2 Da purified peptide (peak 1.10) from Agalychnis calcarifer on intracellular pathways mediated by protein kinase A (forskolin), protein kinase C (PMA) or pertussis toxin-sensitive G-proteins. Legend: Acute effects of the 13 amino acid 1653.2 Da purified peptide (peak 1.10) from Agalychnis calcarifer on forskolin and PMA on insulin secretion from BRIN-BD11 cells cultured overnight in the absence (control) and presence of 25 μM forskolin, 10 nM PMA or 0.1 μg/ml pertussis toxin. Acute incubations were performed at 5.6 mM glucose. Values are the mean ±SEM for 8 separate observations. ***P<0.001 compared with 5.6 mM glucose alone under same culture conditions. ^ΔΔΔp<0.001 compared with respective test reagent following control culture.
FIG. 9 illustrates the dependence of the stimulatory effects of 1641.7 Da, 1662.6 Da, 1619.8 Da and 1650.5 Da purified peptides (peaks 21, 22, 23 and 24) from Bombina variegata on intracellular pathways mediated by protein kinase A (forskolin), protein kinase C (PMA) or pertussis toxin-sensitive G-proteins. Legend: Acute effects of 1641.7, 1662.6, 1619.8 and 1650.5 Da purified peptides (peaks 21, 22, 23 and 24) from Bombina variegata on forskolin and PMA on insulin secretion from BRIN-BD11 cells cultured overnight in the absence (control) and presence of 25 μM forskolin, 10 nM PMA or 0.1 μg/ml pertussis toxin. Acute incubations were performed at 5.6 mM glucose. Values are the mean ±SEM for 8 separate observations. **P<0.001 compared with 5.6 mM glucose alone under same culture conditions. ^ΔP<0.001 compared with respective test reagent following control culture.
FIG. 10 illustrates the dependence of the stimulatory effects of 4920.4 Da and 4801.2 Da purified peptides (peaks 5.1 and 5.4) from Rana saharica on intracellular pathways mediated by protein kinase A (forskolin), protein kinase C (PMA) or pertussis toxin-sensitive G-proteins. Legend: Acute effects of 4920.4 and 4801.2 Da purified peptides (peaks 5.1 and 5.4) from Rana saharica on forskolin and PMA on insulin secretion from BRIN-BD11 cells cultured overnight in the absence (control) and presence of 25 μM forskolin, 10 nM PMA or […] pertussis toxin. Acute incubations were performed at 5.6 mM glucose. Values are the mean ±SEM for 8 separate observations. ***P<0.001 compared with 5.6 mM glucose alone under same culture conditions. ^ΔΔP<0.001 compared with respective test reagent following control culture.
(§1) Culture of insulin-secreting cells: Clonal rat insulin-secreting BRIN-BD11 cells were cultured in RPMI-1640 tissue culture medium containing 10% (v/v) fetal calf serum, 1% (v/v) antibiotics (100 U/ml penicillin, 0.1 mg/ml streptomycin) and 11.1 mM glucose. The production and characterisation of BRIN-BD11 cells are described elsewhere. Cells were maintained in sterile tissue culture flasks (Corning, Glass Works, UK) at 37° C. in an atmosphere of 5% CO2 and 95% air using LEEC incubator (Laboratory Technical Engineering, Nottingham, UK). In three experimental series using purified peptides from Agalychnis calcarifer, Bombina variegata and Rana saharica cells were cultured overnight with 25 μM forskolin, 10 nM PMA or 0.1 μg/ml pertussis toxin prior to acute tests.
Acute insulin release studies: Insulin release from BRIN-BD11 cells was determined using cell monolayers [McClenaghan N H, Barnett C R, Ah-Sing E, Abdel-Wahab Y H, O'Harte F P, Yoon T W, Swanston-Flatt S K and Flatt P R 1996 Characterization of a novel glucose-responsive insulin-secreting cell line, BRIN-BD11, produced by electrofusion. Diabetes 45 1132-1140]. The cells were harvested with the aid of trypsin/EDTA (Gibco), seeded into 24-multiwell plates (Nunc, Rosklide, Denmark) at a density of […] per well, and allowed to attach overnight. […]

[2] = tested on: BRIN-BD11 cells; assay type: cell-based, rat; conditions: for Insulin-releasing action in the presence of verapamil (in words): 50 μM verapamil, calcium channel blocker; for Insulin-releasing action in cells depolarised with KCl (in words): 30 mM KCl
Procedure: as §1
Acute insulin release studies: Insulin release from BRIN-BD11 cells was determined using cell monolayers [McClenaghan N H, Barnett C R, Ah-Sing E, Abdel-Wahab Y H, O'Harte F P, Yoon T W, Swanston-Flatt S K and Flatt P R 1996 Characterization of a novel glucose-responsive insulin-secreting cell line, BRIN-BD11, produced by electrofusion. Diabetes 45 1132-1140]. The cells were harvested with the aid of trypsin/EDTA (Gibco), seeded into 24-multiwell plates (Nunc, Rosklide, Denmark) at a density of […] per well, and allowed to attach overnight. Prior to acute test, cells were preincubated for 40 min at 37° C. in a 1.0 ml Krebs Ringer bicarbonate buffer (115 mM NaCl, 4.7 mM KCl, 1.28 MM CaCl2, 1.2 MM KH2PO4, 1.2 mM MgSO4, 10 mM NaHCO3, 5 g/l bovine serum albumin, pH 7.4) supplemented with 1.1 mM glucose. Test incubations were performed for 20 min at 37° C. using the same buffer supplemented with 5.6 mM glucose in the absence (control) and presence of various venom fractions, peaks (equivalent to approx. 25 μl dried HPLC fraction) or test agents as indicated in the Figures. Cell viability after 20 min test incubations was assessed by modified neutral red assay [Hunt S M, Chrzanowska C, Barnnett C R, Brand H N and Fawell J K 1987 A comparison of in vitro cytotoxicity assays and their application to water samples. Alternatives to Laboratory Animals 15 20-29]. After incubation, aliquots of buffer were removed and stored at −20° C. for insulin radiomnimmunoassay [Flatt P R. and Bailey C J 1981 Abnormal plasma glucose and insulin responses in heterozygous lean (ob/+) mice. Diabetologia 20 573-577].

[3] = Table 10, no addition, 5.6 mM glucose, 8 observations, control 1.69 ± 0.17
[4] = Table 10, peptide plus KCl (30 mM), 5.6 mM glucose, 8 observations
[5] = Table 10, peptide plus verapamil (50 μM), 5.6 mM glucose, 8 observations
[6] = peptides from Rana saharica, 5.6 mM glucose, mean ± SEM, 3 observations, no-peptide control 1.87 ± 0.06
[7] = Table 9, no addition, 5.6 mM glucose, 8 observations, control 1.69 ± 0.17
[8] = Table 9, peptide plus KCl (30 mM), 5.6 mM glucose, 8 observations
[9] = Table 9, peptide plus verapamil (50 μM), 5.6 mM glucose, 8 observations

Row | Compound | Stimulatory effect on insulin secretion in cells cultured overnight with PMA [1] | Insulin-releasing action in the presence of verapamil (in words) [2] | Insulin-releasing action in cells depolarised with KCl (in words) [2] | Insulin secretion (ng/10^6 cells/20 min) [2, 3] | Insulin secretion (ng/10^6 cells/20 min) [2, 4] | Insulin secretion (ng/10^6 cells/20 min) [2, 5] | Insulin release (ng/10^6 cells/20 mins) [2, 6] | Stimulatory effect on insulin secretion in cells cultured overnight with pertussis toxin [1] | Stimulatory effect on insulin secretion in cells cultured overnight with forskolin [1] | Insulin release (ng/10^6 cells/20 mins) [2] | Insulin secretion (ng/10^6 cells/20 min) [2, 7] | Insulin secretion (ng/10^6 cells/20 min) [2, 8] | Insulin secretion (ng/10^6 cells/20 min) [2, 9] | Insulin secretion (ng/10^6 cells/20 min) ([2]; Table 8, no addition, 5.6 mM glucose, control 1.68 ± 0.16) | Insulin secretion (ng/10^6 cells/20 min) ([2]; Table 8, peptide plus KCl (30 mM), 5.6 mM glucose) | Insulin secretion (ng/10^6 cells/20 min) ([2]; Table 8, peptide plus verapamil (50 μM), 5.6 mM glucose) | Insulin release (ng/10^6 cells/20 mins) ([2]; peptides from Agalychnis calcarifer, 5.6 mM glucose, no-peptide control 1.71 ± 0.12)
1 | CCCCCCCCCCCCCC(=O)O[C@@H]1[C@@H](C)[C@@]2(O)[C@@H](C=C(CO)C[C@]3(O)C(=O)C(C)=C[C@@H]23)[C@@H]2C(C)(C)[C@]12OC(C)=O [PMA, reference compound] | abolition |  |  |  |  |  |  |  |  |  |  |  |  |  |  |  | 
2 | GIFSKFGRKKIKNLLISGLKNVGKEVGMDVVRTGIDIAGCKIKGEC [Peptide 5.1, peptide from Rana saharica, 98% ID to Esculentin-1] | abolished | not inhibited | clearly evident | 2.96 ± 0.32 ng/10^6 cells/20 min | 10.11 ± 0.81ΔΔΔ*** ng/10^6 cells/20 min | 2.88 ± 0.28 ng/10^6 cells/20 min | 3.32 ± 0.22 ng/10^6 cells/20 mins | abolished | abolished |  |  |  |  |  |  |  | 
3 | GIFSKLAGKKLKNLLISGLKNVGKEVGMDVVRTGIDIAGCKIKGEC [Peptide 5.4, peptide from Rana saharica matching Esculentin-1B] | abolished | not inhibited | clearly evident | 2.89 ± 0.19 ng/10^6 cells/20 min | 11.84 ± 0.98ΔΔΔ*** ng/10^6 cells/20 min | 2.79 ± 0.10 ng/10^6 cells/20 min | 3.30 ± 0.22 ng/10^6 cells/20 mins | abolished | abolished |  |  |  |  |  |  |  | 
4 | GKPFYPPPIYPEDM [Peptide 24, peptide from Bombina variegata, 57% ID to tryptophyllin] | did not affect | not affected | clearly evident |  |  |  |  | did not affect | abolished | 4.30 ± 0.20 ng/10^6 cells/20 mins | 3.31 ± 0.20 ng/10^6 cells/20 min | 15.35 ± 0.41ΔΔΔ*** ng/10^6 cells/20 min | 3.08 ± 0.29 ng/10^6 cells/20 min |  |  |  | 
5 | Pyr-DSFGNQWARGHFM-amidated (HELM PEPTIDE1{[Glp].D.S.F.G.N.Q.W.A.R.G.H.F.M.[am]}$$$$V2.0; SMILES CSCC[C@H](NC(=O)[C@H](Cc1ccccc1)NC(=O)[C@H](Cc1c[nH]cn1)NC(=O)CNC(=O)[C@H](CCCNC(=N)N)NC(=O)[C@H](C)NC(=O)[C@H](Cc1c[nH]c2ccccc12)NC(=O)[C@H](CCC(N)=O)NC(=O)[C@H](CC(N)=O)NC(=O)CNC(=O)[C@H](Cc1ccccc1)NC(=O)[C@H](CO)NC(=O)[C@H](CC(=O)O)NC(=O)[C@@H]1CCC(=O)N1)C(N)=O) [Peptide 22, peptide from Bombina variegata, 72% ID to bombesin] | did not affect | not affected | clearly evident |  |  |  |  | did not affect | abolished | 4.75 ± 0.13 ng/10^6 cells/20 mins | 3.23 ± 0.14 ng/10^6 cells/20 min | 13.69 ± 1.43ΔΔΔ*** ng/10^6 cells/20 min | 3.05 ± 0.09 ng/10^6 cells/20 min |  |  |  | 
6 | Pyr-QRLGHQWAVGHLM-amidated (N-terminal pyroglutamate, C-terminal amide) [Peptide 21, peptide from Bombina variegata, (His)^6Bombesin, 93% ID to bombesin] | did not affect | not affected | clearly evident |  |  |  |  | did not affect | abolished | 4.66 ± 0.24 ng/10^6 cells/20 mins | 3.65 ± 0.05 ng/10^6 cells/20 min | 13.68 ± 1.42ΔΔΔ*** ng/10^6 cells/20 min | 4.25 ± 0.82 ng/10^6 cells/20 min |  |  |  | 
7 | RRKPLFPFIPRPK [Peptide 1.10, 13 amino acid 1653.2 Da purified peptide from Agalychnis calcarifer] | did not affect | not affected | clearly evident |  |  |  |  | did not affect | abolished |  |  |  |  | 2.75 ± 0.12 ng/10^6 cells/20 min | 16.45 ± 0.10 ΔΔ*** ng/10^6 cells/20 min | 3.54 ± 0.20 ΔΔ*** ng/10^6 cells/20 min | 2.61 ± 0.11 ng/10^6 cells/20 mins
